Data as given in patent US12227520B2 (priority 2019, dated 2025).
Where two headings read alike, the source gives them in different places.

Columns and labels:
pLai RLuc reporter virus = test: microbe, parasite or virus in culture; assay type: cell-based, HIV; conditions: Human immunodeficiency virus 1, 72 h
Method in brief: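 Read-out is Renilla luciferase after 72 h at 37 °C in MT-4 cells infected 2 h beforehand with pLai RLuc reporter virus; compounds diluted 1:3.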

[1] = Cytotoxicity assay in MT-4 cells; assay type: cell-based, human; conditions: human, uninfected MT-4 cells, 5 days incubation; read-out: CC50
Method in brief: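 For cytotoxicity, uninfected MT-4 cells were incubated with compounds 5 days at 37 °C, with 10 μM puromycin marking base cytotoxicity. Parallel plates used HIV-1 IIIB-infected (1:250 stock dilution) or mock cells with 5 μM AZT and no-drug controls. Read-out: CellTiter-Glo chemiluminescence.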

HIV-1 (IIIB) = test: Antiviral assay in MT-4 cells (HIV MT-4 antiviral assay); assay type: cell-based; conditions: Human immunodeficiency virus 1, IIIB, MT4, 120 h, HIV-1 (IIIB) in MT-4 cells, 5 days incubation
Method in brief: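 Read-out is CellTiter-Glo chemiluminescence after 5-day culture at 37° C, giving protection of MT-4 cells from HIV-1 IIIB cytopathicity. Compounds tested in 1:3 dilution series in complete RPMI; controls were no drug, mock infection and 5 μM AZT.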

[2] = read-out: Antiviral Serum Shift RLuc 50% HS, HS/CCM (RPMI media, 10% FBS, 50% HS, 1% P/S), 72-h incubation
[3] = read-out: Antiviral Serum Shift RLuc CCM, CCM (RPMI media, 10% FBS, 1% P/S), 72-h incubation

Row | SMILES | EC50 (pLai RLuc reporter virus; [2]) | EC50 (pLai RLuc reporter virus; [3]) | CC50 at 5 days [1] | EC50 (HIV-1 (IIIB); read-out: EC50) | EC50 (HIV-1 (IIIB))
1 | O=C(NCc1c(F)cc(F)cc1F)c1cn2c(c(O)c1=O)C(=O)N1CCC=C(F)[C@H]2C1 (single isomer, unassigned) [Example 75-2] | 2.19 nM | 0.473 nM | 26000 nM | 2.09 nM | –
2 | O=C(NCc1c(F)cc(F)cc1F)c1cn2c(c(O)c1=O)C(=O)N1C[C@@H]2CCc2c(Cl)cccc21 [Example 45-1, (12S)-1-chloro-7-hydroxy-6,8-dioxo-N-(2,4,6-trifluorobenzyl)-6,8,13,14-tetrahydro-12H-5,12-methanobenzo[e]pyrido[1,2-a][1,4]diazonine-9-carboxamide] | 2.56 nM | 0.359 nM | 6900 nM | 1.66 nM | –
3 | O=C(NCc1c(F)cc(F)c(Cl)c1F)c1cn2c(c(O)c1=O)C(=O)N1CCCC[C@H]2C1 [Example 74, (7S)—N-(3-chloro-2,4,6-trifluorobenzyl)-12-hydroxy-1,11-dioxo-1,4,5,6,7,11-hexahydro-3H-2,7-methanopyrido[1,2-a][1,4]diazonine-10-carboxamide] | 13.8 nM | 0.492 nM | 7280 nM | 1.52 nM | –
4 | O=C(NCc1ccc(F)cc1F)c1cn2c(c(O)c1=O)C(=O)N1C[C@@H](F)CC[C@@H]2C1 (single isomer, unassigned) [Example 53-3] | 75.2 nM | 0.223 nM | 11200 nM | 1.94 nM | –
5 | CC[C@]1(OC)CCCN2C[C@H]1n1cc(C(=O)NCc3c(F)cc(F)cc3F)c(=O)c(O)c1C2=O [Example 100, (6S,7R)-6-ethyl-12-hydroxy-6-methoxy-1,11-dioxo-N-(2,4,6-trifluorobenzyl)-1,4,5,6,7,11-hexahydro-3H-2,7-methanopyrido[1,2-a][1,4]diazonine-10-carboxamide] | 1.77 nM | 0.631 nM | 9440 nM | 1.58 nM | –
6 | O=C(NCc1c(F)cc(F)cc1F)c1cn2c(c(O)c1=O)C(=O)N1C[C@@H]2CCc2ccc(F)cc21 [Example 86-2, (12S)-3-fluoro-7-hydroxy-6,8-dioxo-N-(2,4,6-trifluorobenzyl)-6,8,13,14-tetrahydro-12H-5,12-methanobenzo[e]pyrido[1,2-a][1,4]diazonine-9-carboxamide] | 0.5 nM | 0.262 nM | 13700 nM | 1.1 nM | –
7 | O=C(NCc1c(F)cc(F)cc1F)c1cn2c(c(O)c1=O)C(=O)N1CCCC(F)(F)[C@H]2C1 (single isomer, unassigned) [Example 10-2] | 5.04 nM | 0.27 nM | 16100 nM | 1 nM | –
8 | O=C(NCc1c(F)cc(F)cc1F)c1cn2c(c(O)c1=O)C(=O)N1Cc3ccccc3C[C@H]2C1 [Example 70, (6S)-1-hydroxy-2,14-dioxo-N-(2,4,6-trifluorobenzyl)-2,7,12,14-tetrahydro-6H-6,13-methanobenzo[f]pyrido[1,2-a][1,4]diazonine-3-carboxamide] | 1.32 nM | 0.322 nM | 13300 nM | 1.41 nM | –
9 | C[C@]1(F)CCCN2C[C@@H]1n1cc(C(=O)NCc3c(F)cc(F)cc3F)c(=O)c(O)c1C2=O [Example 61-1, (6S, 7S)-6-fluoro-12-hydroxy-6-methyl-1,11-dioxo-N-(2,4,6-trifluorobenzyl)-1,4,5,6,7,11-hexahydro-3H-2,7-methanopyrido[1,2-a][1,4]diazonine-10-carboxamide] | 72 nM | 0.206 nM | 10300 nM | 1.85 nM | –
10 | C[C@@H]1N2C[C@H](CCC1(F)F)n1cc(C(=O)NCc3c(F)cc(F)cc3F)c(=O)c(O)c1C2=O [Example 154-2, (3S,7S)-4,4-difluoro-12-hydroxy-3-methyl-1,11-dioxo-N-(2,4,6-trifluorobenzyl)-1,4,5,6,7,11-hexahydro-3H-2,7-methanopyrido[1,2-a][1,4]diazonine-10-carboxamide] | 7.14 nM | 0.306 nM | 15200 nM | 1.94 nM | –
11 | O=C(NCc1ccc(F)cc1F)c1cn2c(c(O)c1=O)C(=O)N1CCCC(F)(F)[C@H]2C1 [Example 16-2, (7R)—N-(2,4-difluorobenzyl)-6,6-difluoro-12-hydroxy-1,11-dioxo-1,4,5,6,7,11-hexahydro-3H-2,7-methanopyrido[1,2-a][1,4]diazonine-10-carboxamide] | 82.5 nM | 0.85 nM | 36200 nM | 5.3 nM | –
12 | O=C(NCc1c(F)cc(F)cc1F)c1cn2c(c(O)c1=O)C(=O)N1CCC[C@@H](Cl)[C@H]2C1 (single isomer, unassigned) [Example 72-2] | 34 nM | 0.267 nM | 12100 nM | 4.27 nM | –
13 | O=C(NCc1ccc(F)cc1F)c1cn2c(c(O)c1=O)C(=O)N1Cc3cc(F)c(F)cc3C[C@H]2C1 [Example 89, (6S)—N-(2,4-difluorobenzyl)-9,10-difluoro-1-hydroxy-2,14-dioxo-2,7,12,14-tetrahydro-6H-6,13-methanobenzo[f]pyrido[1,2-a][1,4]diazonine-3-carboxamide] | 4.39 nM | 0.669 nM | > 47900 nM | 2.38 nM | –
14 | C[C@H]1CC(F)C[C@H]2CN1C(=O)c1c(O)c(=O)c(C(=O)NCc3c(F)cc(F)cc3F)cn12 (stereo partly drawn) [Example 84, (3S,7S)-5-fluoro-12-hydroxy-3-methyl-1,11-dioxo-N-(2,4,6-trifluorobenzyl)-1,4,5,6,7,11-hexahydro-3H-2,7-methanopyrido[1,2-a][1,4]diazonine-10-carboxamide] | 1.36 nM | 0.427 nM | 37200 nM | 2.01 nM | –
15 | O=C(NCc1c(F)cc(F)cc1F)c1cn2c(c(O)c1=O)C(=O)N1C[C@H]2CCc2c(F)cccc21 [Example 43-2, (12R)-1-fluoro-7-hydroxy-6,8-dioxo-N-(2,4,6-trifluorobenzyl)-6,8,13,14-tetrahydro-12H-5,12-methanobenzo[e]pyrido[1,2-a][1,4]diazonine-9-carboxamide] | 0.647 nM | 0.289 nM | 9150 nM | 1.57 nM | –
16 | O=C(NCc1c(F)cc(F)cc1F)c1cn2c(c(O)c1=O)C(=O)N1C[C@@H]2CS(=O)(=O)c2ccccc21 [Example 96, (6R)-1-hydroxy-2,14-dioxo-N-(2,4,6-trifluorobenzyl)-2,6,7,14-tetrahydro-6,13-methanobenzo[b]pyrido[2,1-f][1,4,7]thiadiazonine-3-carboxamide 8,8-dioxide] | 3.33 nM | 3.09 nM | > 50000 nM | 18.1 nM | –
17 | O=C(NCc1ccc(F)cc1F)c1cn2c(c(O)c1=O)C(=O)N1CCCC3(CC3)[C@@H]2C1 [Example 57-2, (7′R)—N-(2,4-difluorobenzyl)-12′-hydroxy-1′,11′-dioxo-1′,4′,5′,11′-tetrahydro-3′H,7′H-spiro[cyclopropane-1,6′-[2,7]methanopyrido[1,2-a][1,4]diazonine]-10′-carboxamide] | 133 nM | 0.396 nM | 8910 nM | 1.77 nM | –
18 | C[C@H]1CCCN2CC1n1cc(C(=O)NCc3c(F)cc(F)cc3F)c(=O)c(O)c1C2=O (stereo partly drawn) [Example 190, (6S)-12-hydroxy-6-methyl-1,11-dioxo-N-(2,4,6-trifluorobenzyl)-1,4,5,6,7,11-hexahydro-3H-2,7-methanopyrido[1,2-a][1,4]diazonine-10-carboxamide] | 14.2 nM | 0.434 nM | 22800 nM | – | 1.81 nM
19 | O=C(NCc1ccc(F)cc1F)c1cn2c(c(O)c1=O)C(=O)N1CC[C@@H](F)C[C@H]2C1 [Example 56-2, (5R,7S)—N-(2,4-difluorobenzyl)-5-fluoro-12-hydroxy-1,11-dioxo-1,4,5,6,7,11-hexahydro-3H-2,7-methanopyrido[1,2-a][1,4]diazonine-10-carboxamide] | 1.08 nM | 0.401 nM | 17800 nM | 1.86 nM | –
20 | O=C1c2c(O)c(=O)c(-c3nnc(Cc4ccc(F)cc4F)s3)cn2[C@H]2CCCCN1C2 [Example 185, (7S)-10-(5-(2,4-difluorobenzyl)-1,3,4-thiadiazol-2-yl)-12-hydroxy-4,5,6,7-tetrahydro-3H-2,7-methanopyrido[1,2-a][1,4]diazonine-1,11-dione] | 4.88 nM | 0.984 nM | 3550 nM | 3.29 nM | –
21 | C[C@@H]1C[C@H]2CN(C(=O)c3c(O)c(=O)c(C(=O)NCc4c(F)cc(F)cc4F)cn32)[C@@H](C)C1 [Example 142-1, (3S,5S,7S)-12-hydroxy-3,5-dimethyl-1,11-dioxo-N-(2,4,6-trifluorobenzyl)-1,4,5,6,7,11-hexahydro-3H-2,7-methanopyrido[1,2-a][1,4]diazonine-10-carboxamide] | 1.18 nM | 0.354 nM | 8420 nM | 1.97 nM | –
